Data from patent US12589143B2, “Human anti-PD-L1 peptide vaccines and methods of their use” (priority 2019, dated 2026).
Values joined by “and” are separate entries in the source; they are usually repeats but may differ in a detail not shown here. Equal entries are not always repeated. Where no end group is shown, it is not given here.

Tested on: MVF-PD-L1 peptide immunogen
Assay: Immunogenicity in Balb/c mice, experiment 1 (CT26 WT): ELISA of sera vs each MVF-PD-L1 peptide immunogen
Format: in vivo
Conditions: for Immunogenicity (titers) 1′ Conc. 1:: Balb/c mice
Procedure: Immunogenicity of MVF-PD-L1 B-cell epitopes. New Zealand White rabbits were immunized with 1 mg of each MVF-peptide immunogens dissolved in dd H2O emulsified (1:1) in Montanide ISA 720 vehicle (Seppic) with 333 μg of N-acetylglucosamine-3yl-acetyl-1-alanyl-d-isoglutamine (nor-MDP). Rabbits were boosted with the same doses at 3-week's intervals. Blood was collected via the central auricular artery in rabbits. Blood was collected weekly (1Y+3, 2Y+1, 2Y+2,2Y+3, 3Y+1, 3Y+2 and sera tested for antibody titers by ELISA using the immunogens MVF-PD-L1 peptides. Sera (terminal) from rabbit (3Y+3) immunized with MVF-PD-1 peptide immunogens were tested individually versus the immunogen by ELISA. 200 ng/well peptide were used in duplicates to coat the ELISA plates. Titers are defined as the highest dilution of sera with an absorbance value of 0.2 after subtracting the blank.
FIGS. 5A, 5B, 5C, and 5D show the experimental scheme to test the immunization with PD-L1 in Balb/c mice. […] Balb/c mice 6-8 weeks old, were immunized with MVF-peptide immunogens emulsified in ISA 720 with nor-MDP three times and three weeks apart. Mice were immunized with MVF-PD-L1 vaccine constructs [PD-L1(36-53), PD-L1(50-67), PD-L1(95-112), PD-L1(130-147)] prior to tumor challenge. Blood was collected weekly and sera tested for antibody titers by ELISA. Two weeks after the third immunization (3Y), the mice were engrafted with CT26 WT tumor cells 10^5 per mouse Control mice were treated twice weekly with PBS as negative control and twice weekly with anti-mPD-L1 mAb (10F.9G2) as positive control starting 2 days after tumor challenge. Tumor growths were observed twice weekly and measured by calipers.
Immunogenicity of MVF-PD-L1 peptides in BALB/c mice immunized with various peptide constructs. Sera collected weekly were tittered against each individual MVF-PD-L1 peptide immunogen. The Pink bar refers to titers versus PD-L1 130 and the red bar refers to titers versus PD-1 (92-110).
In order to verify the efficacy of the PD-L1 epitope vaccines in vivo in the CT26 carcinoma cell line, Balb/c mice (10 mice/group) were immunized with 100 μg each of MVF-PD-L1 (36-53), MVF-PD-L1 (50-67), MVF-PD-L1 (95-112) and MVF-PD-L1 (130-147) emulsified with nor-MDP and Montanide 720 (1:1 ratio) SCHEME 1A (FIG. 5A). As detailed in SCHEME 1A-D (FIGS. 5A, 5B, 5C, and 5D), mice were immunized 3 times at 3 weeks intervals. […] All PD-L1 epitopes elicited high titers of PD-L1 anti-peptide antibodies by ELISA. […] We also investigated the combination of PD-1(92-110) with PD-L1-130-147.
For each peptide, vaccine antibodies were raised in New Zealand white rabbits, purchased from Charles River Laboratories (Wilmington, MA, USA). Rabbits were immunized with 1 mg of MVF chimeric peptide emulsified in Montanide ISA 720 (Seppic, Paris, France) and boosted 3 times at three week intervals. For mouse experiments, mice, 6-8 weeks old, were immunized with 0.1 mg of peptide emulsified in ISA720 (1:1 ratio). Mice were boosted with the respective doses at 3-week intervals. Blood was then collected and sera were tested for antibody titers. Sera were collected weekly and peptide vaccine antibodies were purified by affinity chromatography using a protein A/G column and the concentration was measured using Spectrophometer. All experiments were performed in accordance with the U.S. Public Health Service Policy on Humane Care and Use of Laboratory animals and approved by the Ohio State University Institutional Animals Care and Use Committee, detailed in the accepted protocol.
6-8 weeks old BALB/c mice (Charles River, Wilmington, MA) were used as standard animal models. Mouse CT26 colon carcinoma cell line was purchased from American Type Culture Collection Cells and were regularly cultured in RPMI1640 medium containing 10% FBS. CT26/HER2 cells were kindly provided by M. Penichet. Vaccines were dissolved in sterile water and emulsified in Montanide ISA 720 (1:1). […]

Q: For “KLLSLIKGVIVHRLEGVEGPSLLIVYWEMEDKNIIQFVHG (KLLSLIKGVIVHRLEGVEGPSLLIVYWEMEDKNIIQFVHG-NH2) [PD-L1(36)]”, which “Immunogenicity (titers) 1′ Conc. 1:” value (bleed 1Y + 3) is on record?
A: Its value is 400.

Q: And the “Immunogenicity (titers) 1′ Conc. 1:” value (bleed 2Y + 1)?
A: Its value is 1600.

Q: And the “Immunogenicity (titers) 1′ Conc. 1:” value (bleed 2Y + 2)?
A: The value was 6400.

Q: What about the “Immunogenicity (titers) 1′ Conc. 1:” value (bleed 2Y + 3) of the same sequence?
A: Its value is 16000.

Q: What about the “Immunogenicity (titers) 1′ Conc. 1:” value (bleed 3Y + 1) of the same sequence?
A: The value was 16000.

Q: And the “Immunogenicity (titers) 1′ Conc. 1:” value (bleed 3Y + 2)?
A: The value was 16000.

Q: And the “Immunogenicity (titers) 1′ Conc. 1:” value (bleed 3Y + 3)?
A: Its value is 16000.

Q: What about the “ELISA absorbance of sera” value (bleed 1Y + 3 (1to100), dilution 100) of the same sequence?
A: Its value is 0.598 and 0.583.

Q: What about the “ELISA absorbance of sera” value (bleed 1Y + 3 (1to100), dilution 200) of the same sequence?
A: Its value is 0.352 and 0.300.

Q: What about the “ELISA absorbance of sera” value (bleed 1Y + 3 (1to100), dilution 400) of the same sequence?
A: The value was 0.212 and 0.200.

Q: What about the “ELISA absorbance of sera” value (bleed 1Y + 3 (1to100), dilution 800) of the same sequence?
A: Its value is 0.117 and 0.088.

Q: What about the “ELISA absorbance of sera” value (bleed 1Y + 3 (1to100), dilution 1,600) of the same sequence?
A: Its value is 0.063 and 0.046.

Q: And the “ELISA absorbance of sera” value (bleed 1Y + 3 (1to100), dilution 3,200)?
A: The value was 0.032 and 0.027.

Q: What about the “ELISA absorbance of sera” value (bleed 1Y + 3 (1to100), dilution 6,400) of the same sequence?
A: The value was 0.014 and 0.010.

Q: And the “ELISA absorbance of sera” value (bleed 1Y + 3 (1to100), dilution 12,800)?
A: Its value is 0.010 and 0.006.

Q: What about the “ELISA absorbance of sera” value (bleed 2Y + 1 (1to100), dilution 100) of the same sequence?
A: The value was 1.031 and 0.901.

Q: What about the “ELISA absorbance of sera” value (bleed 2Y + 1 (1to100), dilution 200) of the same sequence?
A: Its value is 0.815 and 0.784.

Q: And the “ELISA absorbance of sera” value (bleed 2Y + 1 (1to100), dilution 400)?
A: Its value is 0.601 and 0.591.

Q: And the “ELISA absorbance of sera” value (bleed 2Y + 1 (1to100), dilution 800)?
A: Its value is 0.408 and 0.394.

Q: And the “ELISA absorbance of sera” value (bleed 2Y + 1 (1to100), dilution 1,600)?
A: The value was 0.273 and 0.203.

Q: And the “ELISA absorbance of sera” value (bleed 2Y + 1 (1to100), dilution 3,200)?
A: The value was 0.163 and 0.116.

Q: What about the “ELISA absorbance of sera” value (bleed 2Y + 1 (1to100), dilution 6,400) of the same sequence?
A: The value was 0.090 and 0.067.

Q: What about the “ELISA absorbance of sera” value (bleed 2Y + 1 (1to100), dilution 12,800) of the same sequence?
A: The value was 0.049 and 0.031.

Q: What about the “ELISA absorbance of sera” value (bleed 2Y + 2 (1to100), dilution 100) of the same sequence?
A: Its value is 1.281 and 1.251.

Q: What about the “ELISA absorbance of sera” value (bleed 2Y + 2 (1to100), dilution 200) of the same sequence?
A: The value was 1.162 and 1.137.

Q: And the “ELISA absorbance of sera” value (bleed 2Y + 2 (1to100), dilution 400)?
A: Its value is 1.033 and 1.019.

Q: And the “ELISA absorbance of sera” value (bleed 2Y + 2 (1to100), dilution 800)?
A: The value was 0.975 and 0.820.

Q: And the “ELISA absorbance of sera” value (bleed 2Y + 2 (1to100), dilution 1,600)?
A: The value was 0.691 and 0.602.

Q: What about the “ELISA absorbance of sera” value (bleed 2Y + 2 (1to100), dilution 3,200) of the same sequence?
A: Its value is 0.460 and 0.389.

Q: What about the “ELISA absorbance of sera” value (bleed 2Y + 2 (1to100), dilution 6,400) of the same sequence?
A: The value was 0.299 and 0.248.

Q: And the “ELISA absorbance of sera” value (bleed 2Y + 3 (1to1k), dilution 100)?
A: The value was 0.855 and 0.817.

Q: What about the “ELISA absorbance of sera” value (bleed 2Y + 3 (1to1k), dilution 200) of the same sequence?
A: Its value is 0.695 and 0.612.

Q: And the “ELISA absorbance of sera” value (bleed 2Y + 3 (1to1k), dilution 400)?
A: Its value is 0.530 and 0.500.

Q: And the “ELISA absorbance of sera” value (bleed 2Y + 3 (1to1k), dilution 800)?
A: Its value is 0.393 and 0.359.

Q: And the “ELISA absorbance of sera” value (bleed 2Y + 3 (1to1k), dilution 1,600)?
A: The value was 0.273 and 0.257.

Q: And the “ELISA absorbance of sera” value (bleed 2Y + 3 (1to1k), dilution 3,200)?
A: The value was 0.155 and 0.146.

Q: And the “ELISA absorbance of sera” value (bleed 2Y + 3 (1to1k), dilution 6,400)?
A: Its value is 0.074 and 0.049.

Q: And the “ELISA absorbance of sera” value (bleed 3Y + 1 (1to1k), dilution 100)?
A: Its value is 0.966 and 0.923.

Q: And the “ELISA absorbance of sera” value (bleed 3Y + 1 (1to1k), dilution 200)?
A: The value was 0.785 and 0.691.

Q: What about the “ELISA absorbance of sera” value (bleed 3Y + 1 (1to1k), dilution 400) of the same sequence?
A: Its value is 0.599 and 0.565.

Q: What about the “ELISA absorbance of sera” value (bleed 3Y + 1 (1to1k), dilution 800) of the same sequence?
A: Its value is 0.444 and 0.406.

Q: And the “ELISA absorbance of sera” value (bleed 3Y + 1 (1to1k), dilution 1,600)?
A: The value was 0.308 and 0.291.

Q: And the “ELISA absorbance of sera” value (bleed 3Y + 1 (1to1k), dilution 3,200)?
A: The value was 0.175 and 0.165.

Q: And the “ELISA absorbance of sera” value (bleed 3Y + 1 (1to1k), dilution 6,400)?
A: The value was 0.084 and 0.056.

Q: And the “ELISA absorbance of sera” value (bleed 3Y + 2 (1to1k), dilution 100)?
A: Its value is 1.202 and 1.225.

Q: What about the “ELISA absorbance of sera” value (bleed 3Y + 2 (1to1k), dilution 200) of the same sequence?
A: The value was 0.934 and 0.949.

Q: And the “ELISA absorbance of sera” value (bleed 3Y + 2 (1to1k), dilution 400)?
A: Its value is 0.658 and 0.662.

Q: And the “ELISA absorbance of sera” value (bleed 3Y + 2 (1to1k), dilution 800)?
A: The value was 0.405 and 0.424.

Q: And the “ELISA absorbance of sera” value (bleed 3Y + 2 (1to1k), dilution 1,600)?
A: Its value is 0.240 and 0.228.

Q: And the “ELISA absorbance of sera” value (bleed 3Y + 2 (1to1k), dilution 3,200)?
A: Its value is 0.151 and 0.130.

Q: What about the “ELISA absorbance of sera” value (bleed 3Y + 2 (1to1k), dilution 6,400) of the same sequence?
A: Its value is 0.077.

Q: What about the “ELISA absorbance of sera” value (bleed 3Y + 3 (1to1k), dilution 100) of the same sequence?
A: Its value is 1.269 and 1.387.

Q: And the “ELISA absorbance of sera” value (bleed 3Y + 3 (1to1k), dilution 200)?
A: Its value is 0.919 and 1.048.

Q: And the “ELISA absorbance of sera” value (bleed 3Y + 3 (1to1k), dilution 400)?
A: Its value is 0.666 and 0.772.

Q: And the “ELISA absorbance of sera” value (bleed 3Y + 3 (1to1k), dilution 800)?
A: Its value is 0.418 and 0.430.

Q: And the “ELISA absorbance of sera” value (bleed 3Y + 3 (1to1k), dilution 1,600)?
A: Its value is 0.246 and 0.257.

Q: What about the “ELISA absorbance of sera” value (bleed 3Y + 3 (1to1k), dilution 3,200) of the same sequence?
A: The value was 0.081 and 0.119.

Q: What about the “ELISA absorbance of sera” value (bleed 3Y + 3 (1to1k), dilution 6,400) of the same sequence?
A: Its value is 0.025.
